For five compounds, Ki and EC50 results are on record in ChEMBL document CHEMBL1136709, “Synthesis and estrogen receptor binding affinities of 7-hydroxy-3-(4-hydroxyphenyl)-4H-1-benzopyran-4-ones containing a basic side chain” (Bioorg Med Chem Lett, 2003).

The structures appear in SMILES notation.

For this test, the target named is T1, Estrogen receptor (Homo sapiens, UniProt P03372).
T1 sequence (P03372 whole entry): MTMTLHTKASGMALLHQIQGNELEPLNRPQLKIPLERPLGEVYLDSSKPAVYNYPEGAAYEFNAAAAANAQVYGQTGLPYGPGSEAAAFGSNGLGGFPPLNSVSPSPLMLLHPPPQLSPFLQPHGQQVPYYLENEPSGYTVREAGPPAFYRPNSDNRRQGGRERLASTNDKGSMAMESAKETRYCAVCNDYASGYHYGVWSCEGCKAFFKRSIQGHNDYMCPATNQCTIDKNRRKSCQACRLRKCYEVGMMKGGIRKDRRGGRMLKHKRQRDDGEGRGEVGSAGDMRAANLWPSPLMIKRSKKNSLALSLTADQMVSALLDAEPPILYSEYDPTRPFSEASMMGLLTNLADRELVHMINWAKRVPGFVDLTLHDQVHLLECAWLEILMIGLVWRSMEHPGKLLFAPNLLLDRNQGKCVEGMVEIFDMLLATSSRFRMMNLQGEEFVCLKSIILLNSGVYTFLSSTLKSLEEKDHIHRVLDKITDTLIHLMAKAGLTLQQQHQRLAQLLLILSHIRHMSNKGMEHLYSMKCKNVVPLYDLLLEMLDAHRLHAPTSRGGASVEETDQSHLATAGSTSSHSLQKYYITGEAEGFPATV
The test can be described thus: Binding affinity for Estrogen receptor alpha.

What is called Ki is a dissociation constant, usually derived from enzyme kinetics or from competition with a known ligand. As to `O=C(c1ccc(OCCN2CCCCC2)cc1)c1oc2cc(O)ccc2c(=O)c1-c1ccc(O)cc1`, affinity was put at a Ki of 3.9 nM.
For orientation: EC50 means the concentration needed to bring the measured effect to its halfway point. The low end stands for greater potency, the high end for weaker potency. In the case of `O=c1c(-c2ccc(O)cc2)c(Sc2ccc(O)cc2)oc2cc(O)ccc12`, a half-maximal response (EC50) required 1860 nM.
On the same count and under the same terms, under `O=c1c(-c2ccc(O)cc2)c(Oc2ccc(OCCN3CCCCC3)cc2)oc2cc(O)ccc12` stands 200 nM; under `O=c1c(-c2ccc(O)cc2)c(Oc2ccc(O)cc2)oc2cc(O)ccc12`, 1740 nM.
`O=c1c(-c2ccc(O)cc2)c(Sc2ccc(OCCN3CCCCC3)cc2)oc2cc(O)ccc12`: the EC50 came out at 770 nM.
